Experimental data: PMC9305947, “Rational Design of Phe‐BODIPY Amino Acids as Fluorogenic Building Blocks for Peptide‐Based Detection of Urinary Tract Candida Infections” (Angewandte Chemie (International Ed. in English), 2022)
Converted amounts (≈) assume the structure as drawn. *1 amine or outer side, *2 acyl side, *3 side chain or, on linkers, in order; H or OH if unused. Where a SMILES comes first, the peptide text is derived from it. Where no end group is shown, it is not given here. [ ]: non-standard residue; d: D form. X1 = COc1ccc(C2=[N+]3C(=C(c4ccc(C[C@H](N[*:1])C(=O)[*:2])cc4)c4ccc(-c5ccc(OC)cc5)n4[B-]3(F)F)C=C2)cc1

Experiments:
C. krusei = format: cell-based, Candida krusei; conditions: 48 h
Protocol: (§1) Figure 4 a) Synthetic procedure for the preparation Fmoc‐Phe(pMP‐BODIPY)‐OH (11). Inset: pictures of solutions of probe 17 (30 μM) under excitation with a 365 nm UV‐lamp in PBS (left) and in liposomes (right). b) Minimum inhibitory concentration (MIC) values of peptides 12–16 against different Candida strains (5×10^5 cells mL^−1) in 20 % Vogel's medium after 48 h incubation at 37 °C. MIC was determined by brightfield microscopy from three independent experiments. c) Chemical structure of peptide 17 and fluorogenic response (25 μM) in PBS (black) and in aqueous suspensions containing liposomes (red). λ exc: 530 nm (n=3). d) MIC values of peptide 17 against different Candida strains and bacteria (5×10^5 cells mL^−1) in 10 % liquid LB medium after 48 h incubation at 37 °C. MIC was determined by brightfield microscopy from three independent experiments (n=3). e) Normalised fluorescence of probe 17 (30 μM) when incubated in diluted urine samples under continuous light irradiation. λ exc: 530 nm. Data presented as mean±SD (n=3). TEXT PRINTED IN THE PICTURE: (a) no label printed: QY 0.08% (OFF); QY 14.9% (ON) | (b) 12: MIC (μmol L^-1) C. inconspic.: 60; MIC (μmol L^-1) C. arius: > 60; MIC (μmol L^-1) C. albicans: 15; MIC (μmol L^-1) C. rugosa: 15; MIC (μmol L^-1) C. glabrata: 30; MIC (μmol L^-1) C. krusei: 30 | (b) 13: MIC (μmol L^-1) C. inconspic.: 2; MIC (μmol L^-1) C. arius: 4; MIC (μmol L^-1) C. albicans: 4; MIC (μmol L^-1) C. rugosa: 16; MIC (μmol L^-1) C. glabrata: 8; MIC (μmol L^-1) C. krusei: 4 | (b) 14: MIC (μmol L^-1) C. inconspic.: > 60; MIC (μmol L^-1) C. arius: > 60; MIC (μmol L^-1) C. albicans: > 60; MIC (μmol L^-1) C. rugosa: > 60; MIC (μmol L^-1) C. glabrata: > 60; MIC (μmol L^-1) C. krusei: > 60 | (b) 15: MIC (μmol L^-1) C. inconspic.: 4; MIC (μmol L^-1) C. arius: > 60; MIC (μmol L^-1) C. albicans: 16; MIC (μmol L^-1) C. rugosa: > 60; MIC (μmol L^-1) C. glabrata: 16; MIC (μmol L^-1) C. krusei: 8 | (b) 16: MIC (μmol L^-1) C. inconspic.: 2; MIC (μmol L^-1) C. arius: 32; MIC (μmol L^-1) C. albicans: 4; MIC (μmol L^-1) C. rugosa: 32; MIC (μmol L^-1) C. glabrata: 4; MIC (μmol L^-1) C. krusei: 8 | (c) peptide 17: λexc.: 530 nm; λem.: 625 nm | (d) peptide 17: MIC (μmol L^-1) C. inconspicua: 8; MIC (μmol L^-1) C. arius: 64; MIC (μmol L^-1) C. albicans: 16; MIC (μmol L^-1) C. rugosa: 64; MIC (μmol L^-1) C. glabrata: 32; MIC (μmol L^-1) C. krusei: 8; MIC (μmol L^-1) E. Coli: > 200 DOUBTS OF THE COPYIST ABOUT THIS PICTURE: Panel a, QY 0.08% / 14.9%: the picture prints no substance label beside the OFF/ON photographs, so the label is left empty / Panel d: the table itself prints no substance label; it is assigned to 'peptide 17', printed directly above it in panel c / Panel c, λexc. 530 nm and λem. […]

C. rugosa = format: cell-based, Candida rugosa; conditions: 48 h
Protocol: as §1

C. inconspicua = format: cell-based, Candida inconspicua; conditions: 48 h
Protocol: as §1

C. albicans = format: cell-based, Candida albicans; conditions: 48 h
Protocol: as §1

C. glabrata = format: cell-based, Candida glabrata; conditions: 48 h
Protocol: as §1

[1] = format: in vitro ADME, human; conditions: diluted urine (urine:water 1:6)
Description: To the best of our knowledge, compound 11 represents the first example of a Phe‐based BODIPY amino acid for SPPS with strong emission in the red region of the visible spectrum. Prior to the incorporation of Phe‐(pMP)BODIPY amino acid 11 into peptides that could detect Candida fungal cells, we prepared a small collection of Phe‐containing antimicrobial peptides as fungal‐targeting scaffolds that could later accommodate BODIPY‐based aromatic FlAAs (Figure 4b). We selected peptide analogues derived from the natural occurring temporin L (Rana temporaria, peptide 12),[31] jelleine‐I (Apis mellifera, peptide 13)[32] and Aurein1.2 (Litoria aurea or Litoria raniformis, peptide 15).[33] […] We next analysed the biological profile of peptide 17 in fungal cells and its selectivity over bacteria. […] Furthermore, we evaluated the photo‐ and chemical stability of the peptide 17 in human urine upon continuous light irradiation. In these assays, we ran both fluorescence and HPLC analysis to confirm that the peptide 17 was fully stable for the clinical evaluation of urine samples using fluorescence‐based assays (Figure 4e and Figure S13).
[…] Environmental sensitivity was measured by comparing the fl uore sce nc e emission in Me OH vs gl yc e rol (c om pounds 4-7) a nd i n pre se nc e of l i posom e suspe nsi ons i n PB Sor PBS a l one (c om pound 17). […]

Molecule	MIC C. krusei (C. krusei)	MIC C. rugosa (C. rugosa)	MIC C. inconspic. (C. inconspicua)	MIC C. albicans (C. albicans)	MIC C. glabrata (C. glabrata)	Photostability in human urine upon continuous light irradiation ([1]; 30 µM, 384-well plates, 37 °C, fluorescence emission 644 nm, λexc 530 nm, mean of three independent experiments n=3)	Chemical stability (integrity) in human urine ([1]; 100 µM, 37 °C, 0, 1 and 10 h, HPLC-MS, absorbance 570 nm)
CC[C@H](C)[C@@H]1NC(=O)[C@H](CO)NC(=O)[C@H]([C@@H](C)CC)NC(=O)[C@H](CCCCN)NC(=O)[C@H](Cc2ccccc2)NC(=O)[C@@H]2CCCN2C(=O)[C@H](CC(C)C)NC(=O)[C@H](Cc2c[nH]cn2)NC1=O [peptide 14] (cyclo(FKISIHLP))	> 60 µM	> 60 µM	> 60 µM	> 60 µM	> 60 µM		
CC[C@H](C)[C@@H]1NC(=O)[C@H](CCCCN)NC(=O)[C@H](Cc2ccccc2)NC(=O)[C@H](Cc2c[nH]c3ccccc23)NC(=O)[C@H](CCCCN)NC(=O)[C@H](CCCCN)NC(=O)[C@H]([C@@H](C)CC)NC1=O [compound 16] (cyclo(FKIIKKW))	8 µM (≈ 7.55 µg/mL)	32 µM (≈ 30.2 µg/mL)	2 µM (≈ 1.89 µg/mL)	4 µM (≈ 3.78 µg/mL)	4 µM (≈ 3.78 µg/mL)		
CC[C@H](C)[C@H](NC(=O)[C@H](CO)NC(=O)[C@@H](NC(=O)[C@H](CCCCN)NC(=O)[C@H](Cc1ccc(C2=C3C=CC(c4ccc(OC)cc4)=[N+]3[B-](F)(F)n3c2ccc3-c2ccc(OC)cc2)cc1)NC(=O)[C@@H]1CCCN1)[C@@H](C)CC)C(=O)N[C@@H](Cc1c[nH]cn1)C(=O)N[C@@H](CC(C)C)C(N)=O [peptide 17, H-Pro-Phe(pMP-BODIPY)-Lys-Ile-Ser-Ile-His-Leu-NH2] (H-P[X1]KISIHL-NH2)						fully stable	fully stable
WFKIIKK-NH2 [peptide 15]	8 µM	> 60 µM	4 µM	16 µM	16 µM		
H-FVQWFSKFLGKIL-NH2 [peptide 12, H-Phe-Val-Gln-Trp-Phe-Ser-Lys-Phe-Leu-Gly-Lys-Ile-Leu-NH2]	30 µM	15 µM	60 µM	15 µM	30 µM		
